PMC8667888, “Discovery of a novel Aurora B inhibitor GSK650394 with potent anticancer and anti-aspergillus fumigatus dual efficacies in vitro” (Journal of Enzyme Inhibition and Medicinal Chemistry, 2021)
Values joined by “and” are separate entries in the source; they are usually repeats but may differ in a detail not shown here. Equal values may be shown once.

Columns and labels:
[1] = system: acute myelogenous leukaemia (AML); design: method as in PMID 23763917; conditions: patients with AML, combined with low-dose cytosine arabinoside (LDAC); cited from earlier work
HepG2 = assay: MTT cell proliferation assay, HepG2; format: cell-based; conditions: Homo sapiens, read-out: IC50, inhibition of proliferation
Procedure: (§1) MTT assay was conducted for cell proliferation analysis. Cells were cultured in 96-well plates (6 × 10^3/well) and treated with drugs or left untreated for 24–72 h. After treatment, cells were incubated with MTT solution (0.5 mg/mL) for 4 h at 37 °C. Then, the reactions were terminated by DMSO and the optical densities were measured by absorbance at 570 nm.

HELF = assay: MTT cell proliferation assay, HELF; format: cell-based; conditions: read-out: IC50, inhibition of proliferation
Procedure: as §1

Af.Aurora B [2] = molecular target: T1, Af.Aurora B (Aspergillus fumigatus, UniProt B0XW52); assay: Luciferase-coupled ATP assay (ATPase activity), Af.Aurora B; format: biochemical; conditions: IC50, inhibition of ATPase activity of Af.Aurora B, recombinant Af.Aurora B, n = 3
Procedure: (§2) The pGEX-dual expression plasmid containing human (Hs.) Aurora B kinase domain (aa.54–344) and a C-terminal fragment of Hs.INCENP (aa.835–904) was obtained from Prof. Hongtao Yu (Department of Life Science, Westlake University). The cDNAs of Af.Aurora B kinase domain (aa.1–396, GenBank accession no. EDP54304.1) and the C-terminal fragment of Af.INCENP (aa.1200–1297, GenBank accession no. XP_033417438.1) was synthesised in Union Biotech (China). Protein expression and purification were performed as previously described. Briefly, The recombinant proteins of Aurora B and INCENP were coexpressed in BL21 (DE3) pLysS competent cells. For protein purification, cells co-expressing GST-INCENP and Aurora B proteins were resuspended with lysis buffer containing 50 mM Tris-HCl, pH 8.0, 200 mM NaCl, 5% glycerol, and 0.05% Triton X-100. Cells were disrupted by French Pressure (Union Biotech, China) and the supernatants were collected after centrifugation. The Aurora B/Hs.INCENP complex proteins were pooled through Glutathione columns (Smart-Lifesciences, China). […]
(§3) A luciferase-based luminescence assay was utilised to determine the ATPase activity of Aurora B according to the manufacture’s protocols (Promega). […] At the end of the reaction, the Kinase-Glo reagent (Promega) was added and the ATPase activity was evaluated by luminescence measurement on the microplate reader (SpectraMax-L, Molecular Devices).

Hela = assay: MTT cell proliferation assay, Hela; format: cell-based; conditions: Homo sapiens, read-out: IC50, inhibition of proliferation
Procedure: as §1

MCF-7 = assay: MTT cell proliferation assay, MCF-7; format: cell-based; conditions: Homo sapiens, MCF7; MCF-7, MTT; read-out: IC50, inhibition of proliferation
Procedure: as §1

LO2 = assay: MTT cell proliferation assay, LO2; format: cell-based; conditions: Homo sapiens, L02, read-out: IC50, inhibition of proliferation
Procedure: as §1

[3] = system: endogenous Aurora B in HepG2 cells; assay: Histone H3 Ser10 phosphorylation in HepG2 cells (immunoblot); format: cell-based, human; conditions: HepG2, 9 h after release from thymidine arrest
Procedure: (§4) HepG2 and HeLa cells were cultured in DMEM and RPMI-1640, respectively, supplemented with 10% foetal bovine serum in 37 °C and 5% CO2. G1/S synchronisation was carried out by treating cells with 2 mM of thymidine for 19 h. […] Subsequently, cells were harvested and subjected to immunoblotting or flow cytometric analysis. For flow cytometry assay, cells were trypsinized, washed once with PBS, and then fixed with cold 75% ethanol. Fixed cells were washed with PBS and resuspended in PBS containing the propidium iodide (Sigma) DNA staining solution, for 30 min at 37 °C. Then, samples were analysed using the Cytoflex cytometer (Beckman Coulter, USA) and the data were processed with the Flow Jo software.

[4] = system: endogenous Aurora B in HeLa cells; assay: Histone H3 Ser10 phosphorylation in HeLa cells (immunoblot); format: cell-based, human; conditions: 9 h after release from thymidine arrest, vs control cells
Procedure: as §4

V91A Aurora B = molecular target: T2, V91A Aurora B (Homo sapiens, UniProt Q96GD4, V91A); assay: Luciferase-coupled ATP assay, V91A mutant Aurora B; format: biochemical
T2 construct: the Hs.Aurora B kinase domain (aa.70–344) was co-expressed in E. coli cells; made in house; host or cells: E. coli BL21 (DE3) pLysS
T2 sequence (Q96GD4 70-344 V91A): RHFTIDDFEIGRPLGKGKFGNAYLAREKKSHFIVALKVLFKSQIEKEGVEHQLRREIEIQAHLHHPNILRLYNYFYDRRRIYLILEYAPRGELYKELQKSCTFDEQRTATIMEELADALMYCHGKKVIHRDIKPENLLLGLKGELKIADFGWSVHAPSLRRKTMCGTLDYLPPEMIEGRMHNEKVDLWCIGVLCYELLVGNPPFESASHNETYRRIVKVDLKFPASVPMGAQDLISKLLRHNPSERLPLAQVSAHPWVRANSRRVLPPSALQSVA
T2 sequence (Q9NQS7 835-904 partner limits assumed): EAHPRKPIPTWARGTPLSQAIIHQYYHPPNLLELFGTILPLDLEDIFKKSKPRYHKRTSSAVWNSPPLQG
Procedure: (§5) A luciferase-based luminescence assay was utilised to determine the ATPase activity of Aurora B according to the manufacture’s protocols (Promega). Briefly, the Aurora B protein was incubated with 10 µM ATP in the absence or presence of various drugs at 30 °C, in a kinase buffer containing 50 mM Tris-HCl, pH7.4, 100 mM NaCl, 10 mM MgCl2, 1 mM DTT, and 0.1% Tween20. At the end of the reaction, the Kinase-Glo reagent (Promega) was added and the ATPase activity was evaluated by luminescence measurement on the microplate reader (SpectraMax-L, Molecular Devices).

human Aurora B [5] = molecular target: T3, human Aurora B (Homo sapiens, UniProt Q96GD4); assay: Luciferase-coupled ATP assay (ATPase activity), human Aurora B; format: biochemical
T3 construct: the Hs.Aurora B kinase domain (aa.70–344) was co-expressed in E. coli cells; made in house; host or cells: E. coli BL21 (DE3) pLysS
T3 sequence (Q96GD4 70-344): as the sequence (Q96GD4 70-344 V91A) above, with A22V counted along it
T3 sequence (Q9NQS7 835-904 partner limits assumed): as the sequence (Q9NQS7 835-904 partner limits assumed) above
Procedure: as §2, §3

Aspergillus fumigatus = assay: Anti-Aspergillus fumigatus plate assay; format: cell-based; conditions: 37 °C, 30 h
Procedure: A plate assay was carried out to assess the growth rate of Aspergillus fumigatus. A specified amount of Aspergillus fumigatus spores were inoculated on the centre of the plate containing solid glucose minimal medium in the absence or presence of drugs. After further incubation for 30 h at 37 °C, the growth rate was determined by measuring the diameter of Aspergillus fumigatus clonies on each plate.

human Aurora B [6] = molecular target: T3, human Aurora B; assay: In vitro kinase assay (histone H3 Ser10 phosphorylation), human Aurora B; format: biochemical; conditions: Western blot
Procedure: (§6) The in vitro kinase assay was performed as previously described. The kinase activity of recombinant Aurora B was assayed by incubating 200 nM purified Aurora B/INCENP protein with 100 µM ATP and 6 µg bulk histones (from calf thymus, Sigma-Aldrich) in kinase buffer containing 50 mM Tris-HCl, pH7.4, 100 mM NaCl, 10 mM MgCl2, 1 mM DTT and 0.1% Tween20. After 15-min incubation at 30 °C, the reaction was quenched by SDS-sample buffer, separated on SDS-PAGE, and immunoblotted with anti-histone H3 and anti-histone H3 phospho-Ser10 (pS10) antibodies. The blots were scanned and quantified with the ChemiDoc™ Touch imaging system (Bio-rad). To investigate the compounds’ inhibitory effect, Aurora B was pre-incubated with DMSO or various concentrations of drugs for 15 min at room temperature and the reactions were then initialised by the addition of ATP and histone substrates.

human Haspin = molecular target: T4, human Haspin (Homo sapiens, UniProt Q8TF76); assay: Luciferase-coupled ATP assay (ATPase activity), human Haspin; format: biochemical; conditions: read-out: IC50, inhibition of human Haspin ATPase activity
T4 sequence (Q8TF76 1-798): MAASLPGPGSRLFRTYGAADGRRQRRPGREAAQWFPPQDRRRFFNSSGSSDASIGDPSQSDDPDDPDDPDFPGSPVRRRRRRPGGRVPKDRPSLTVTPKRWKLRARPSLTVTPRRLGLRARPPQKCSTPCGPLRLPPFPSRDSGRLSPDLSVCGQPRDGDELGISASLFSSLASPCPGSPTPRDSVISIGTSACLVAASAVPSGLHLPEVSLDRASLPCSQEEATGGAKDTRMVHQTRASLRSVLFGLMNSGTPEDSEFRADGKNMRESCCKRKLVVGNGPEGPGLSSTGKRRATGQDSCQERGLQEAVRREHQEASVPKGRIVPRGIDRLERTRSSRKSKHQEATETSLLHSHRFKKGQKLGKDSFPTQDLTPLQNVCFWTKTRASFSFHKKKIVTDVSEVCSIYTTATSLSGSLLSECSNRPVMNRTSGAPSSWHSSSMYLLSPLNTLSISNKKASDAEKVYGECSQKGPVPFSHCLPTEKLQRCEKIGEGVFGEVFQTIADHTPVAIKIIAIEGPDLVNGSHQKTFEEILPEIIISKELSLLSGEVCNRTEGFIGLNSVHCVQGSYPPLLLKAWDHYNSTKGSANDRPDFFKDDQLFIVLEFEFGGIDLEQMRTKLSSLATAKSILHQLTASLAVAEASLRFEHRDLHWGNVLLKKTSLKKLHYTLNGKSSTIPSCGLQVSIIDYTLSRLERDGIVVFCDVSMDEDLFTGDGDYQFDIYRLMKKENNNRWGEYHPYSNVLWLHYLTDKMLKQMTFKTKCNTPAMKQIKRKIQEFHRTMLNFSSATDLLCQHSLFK
Procedure: as §5
Fig. S2 Effect of GSK650394 on human Haspin. (a) Comparison of ATPase activity between Aurora B and Haspin. The luminescence of ATP only control was normalized to 1.0. The values were normalized to ATP-only control set as 100% inhibition. Values are means ± S.E., n = 3. (b) Inhibition of human Haspin ATPase […]
(1 picture or pasted object on this page, not shown here)

Af.Aurora B [7] = molecular target: T1, Af.Aurora B; assay: In vitro kinase assay (histone H3 phosphorylation), Af.Aurora B; format: biochemical; conditions: Western blot
Procedure: as §6

SMILES | overall response rate [1] | IC50 (HepG2) | IC50 (HELF) | IC50 (Af.Aurora B [2]) | IC50 (Hela) | IC50 (MCF-7) | IC50 (LO2) | concentration at which H3 phosphorylation is abolished [3] | effect on histone H3 phosphorylation ([3]; vs control cells) | effect on histone H3 phosphorylation [4] | reduction of inhibitory effect by mutation of Val91 (V91A Aurora B; V91A vs wild type) | IC50 (V91A Aurora B; Val91 mutant, read-out: IC50, inhibition of V91A Aurora B) | IC50 (human Aurora B [5]) | growth rate of Aspergillus fumigatus (diameter of colonies) (Aspergillus fumigatus) | effect on phosphorylation of histone H3 Ser10 by Aurora B (human Aurora B [6]) | IC50 (human Haspin) | effect on kinase activity of Af. Aurora B (Af.Aurora B [7])
CCN(CCCOc1ccc2c(Nc3cc(CC(=O)Nc4cccc(F)c4)n[nH]3)ncnc2c1)CCOP(=O)(O)O [barasertib] | 45% | – | – | – | – | – | – | – | – | – | – | – | – | – | – | – | –
O=C(O)c1ccc(-c2c[nH]c3ncc(-c4ccccc4)cc23)cc1C1CCCC1 [GSK650394] | – | 1530 ± 1880 nM | 6.14 ± 1.33 µM | 1290 nM and 1300 nM | 3.57 ± 1.38 µM | 1420 ± 1190 nM | 1750 ± 1280 nM | 2.5 µM | significant attenuation of histone H3 phosphorylation | significant attenuation of histone H3 phosphorylation | > 20 fold | > 100 µM | 5.68 µM | markedly inhibited in a dose-dependent manner | diminish the phosphorylation of histone H3 Ser10 | 41.4 µM | effectively inhibits
